Assay results as given in patent US20250136593A1, “DEGRADATION AGENT AND USE THEREOF” (HITGEN INC., priority 2021, published 2025).

What was measured:
MOLT-4 cells = assay: Inhibitory activity on MOLT4 cell proliferation by Cell Titer-Glo method; assay type: cell-based; conditions: Homo sapiens, 72 hours incubation, read-out: IC50 concentration for inhibiting MOLT-4 cells
Method: Experimental Example 5, Evaluation Experiment of Inhibitory Activity of Compound on MOLT4 Cell Proliferation by Cell Titer-Glo Method
RPMI medium modified (Hyclone), FBS (Corning), Dimethyl Sulfoxide, P/S, CellTiter-Gbo Luminescent Cell Viability Assay (Promega), MOLT-4 cell (ATCC).
MOLT-4 cells were cultured in monolayer in vitro in an incubator containing 5% CO2 air at 37° C. The culture medium was RPMI 1640 with 10% FBS and 1% P/S. 15 μL of MOLT4 cells, containing 5×10^4 cells per ml, was inoculated to a 384-well plate (Corning, 3707), 750 cells/well, and incubated at 37° C. and 5% CO2 for 30 minutes. Then the compound that had been diluted in advance was added, with a total of 9 concentration points, and 2 parallel repetitions for each concentration point. The cell growing group without adding the compound was used as a negative control (maximum signal control), and the culture medium group was used as a blank control (minimum signal control). At the same time, it was ensured that the final DMSO content in each reaction well was 0.1%. The compound and the cells were incubated in a cell culture incubator at 37° C., 5% CO2 for 3 days (72 hours).
The 384-well plate was taken out from the cell culture incubator and allowed to stand at room temperature, equilibrated for 20 to 30 minutes, and then 25 μl of Cell Titer-Glo detection reagent was added to each reaction well, lysed on a shaker for 2 minutes, incubated for 10 minutes, and BMG PHERAStar (Luminescence) was used for reading.
The inhibition rate was calculated based on the luminescence signals: the average value of the negative control (maximum signal control) and the blank control (minimum signal control) was first calculated, then the inhibition rates of the compound at different concentrations for the cells were calculated as follows:
The IC50 of the compound to inhibit cell activity was calculated by fitting with GraphPad Prism 6 using log(inhibitor) vs. response−Variable slope mode. The fitting equation was: Y=Bottom+(Top−Bottom)/(1+10^((LogIC50−X)*HillSlope)), wherein Y represented the inhibition rate and X represented the known compound concentration after Log.

[1] = target: ternary complex between BCL-XL and CRBN-DDB1 (Homo sapiens, UniProt Q07817+Q96SW2); assay: Compound-induced formation of ternary complex between BCL-XL and CRBN-DDB1 by AlphaLISA; assay type: biochemical; set-up: key: the number of + indicates the intensity of AlphaLISA peak signal; ++: the number of + indicates the intensity of AlphaLISA peak signal; +++: the number of + indicates the intensity of AlphaLISA peak signal; ++++: the number of + indicates the intensity of AlphaLISA peak signal; +++++: the number of + indicates the intensity of AlphaLISA peak signal; conditions: peak signal; 60 nM Strep-BCL-XL and 60 nM His-CRBN/DDB1
ternary complex between BCL-XL and CRBN-DDB1, sequence (Q07817 whole entry): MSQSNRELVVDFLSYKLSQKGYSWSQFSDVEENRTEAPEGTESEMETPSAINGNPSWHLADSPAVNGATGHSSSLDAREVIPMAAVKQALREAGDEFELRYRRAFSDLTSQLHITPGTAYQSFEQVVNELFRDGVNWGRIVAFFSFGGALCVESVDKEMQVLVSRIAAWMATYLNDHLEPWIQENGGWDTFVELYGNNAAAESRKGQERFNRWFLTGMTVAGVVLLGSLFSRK
ternary complex between BCL-XL and CRBN-DDB1, sequence (Q96SW2 whole entry): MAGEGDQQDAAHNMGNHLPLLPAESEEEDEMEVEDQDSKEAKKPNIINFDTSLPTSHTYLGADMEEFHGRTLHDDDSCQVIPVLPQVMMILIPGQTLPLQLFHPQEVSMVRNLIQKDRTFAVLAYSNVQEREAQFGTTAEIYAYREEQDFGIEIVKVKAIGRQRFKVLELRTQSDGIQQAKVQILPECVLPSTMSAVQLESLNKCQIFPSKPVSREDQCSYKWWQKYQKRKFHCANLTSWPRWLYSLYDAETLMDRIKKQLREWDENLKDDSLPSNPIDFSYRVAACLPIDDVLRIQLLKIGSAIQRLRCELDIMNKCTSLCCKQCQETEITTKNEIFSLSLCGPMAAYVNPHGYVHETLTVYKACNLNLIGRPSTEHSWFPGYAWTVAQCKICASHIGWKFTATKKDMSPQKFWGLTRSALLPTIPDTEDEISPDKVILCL
ternary complex between BCL-XL and CRBN-DDB1, sequence (Q16531 whole entry partner): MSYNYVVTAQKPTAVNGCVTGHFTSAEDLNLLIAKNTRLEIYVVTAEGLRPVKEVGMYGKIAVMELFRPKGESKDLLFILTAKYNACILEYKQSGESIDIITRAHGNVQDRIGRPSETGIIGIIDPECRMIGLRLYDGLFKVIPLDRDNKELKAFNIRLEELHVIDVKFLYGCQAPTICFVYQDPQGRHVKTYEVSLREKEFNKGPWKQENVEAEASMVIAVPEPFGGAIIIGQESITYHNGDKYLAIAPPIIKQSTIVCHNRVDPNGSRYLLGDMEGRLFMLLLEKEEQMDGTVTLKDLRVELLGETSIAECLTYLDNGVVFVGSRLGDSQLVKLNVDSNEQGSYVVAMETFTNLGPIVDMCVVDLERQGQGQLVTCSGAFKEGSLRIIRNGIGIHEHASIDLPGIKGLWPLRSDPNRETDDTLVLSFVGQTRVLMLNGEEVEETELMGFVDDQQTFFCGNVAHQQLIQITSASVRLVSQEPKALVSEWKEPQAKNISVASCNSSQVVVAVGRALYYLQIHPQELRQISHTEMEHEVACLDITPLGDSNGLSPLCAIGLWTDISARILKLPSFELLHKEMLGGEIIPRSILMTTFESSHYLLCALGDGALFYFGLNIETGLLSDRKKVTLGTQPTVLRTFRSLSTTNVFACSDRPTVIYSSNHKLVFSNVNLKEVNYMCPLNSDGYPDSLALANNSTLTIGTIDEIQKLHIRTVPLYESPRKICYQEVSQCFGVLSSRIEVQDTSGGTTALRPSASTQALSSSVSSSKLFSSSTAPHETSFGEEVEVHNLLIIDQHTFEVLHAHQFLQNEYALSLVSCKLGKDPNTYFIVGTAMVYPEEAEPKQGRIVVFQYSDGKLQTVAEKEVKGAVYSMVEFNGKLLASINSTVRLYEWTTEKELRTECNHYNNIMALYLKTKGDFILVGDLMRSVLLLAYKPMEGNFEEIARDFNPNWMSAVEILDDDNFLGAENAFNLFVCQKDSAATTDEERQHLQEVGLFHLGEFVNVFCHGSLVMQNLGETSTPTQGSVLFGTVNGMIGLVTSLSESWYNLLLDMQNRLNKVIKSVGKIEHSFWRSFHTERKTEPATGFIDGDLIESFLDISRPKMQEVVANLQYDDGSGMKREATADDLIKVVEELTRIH
Method: Experimental Example 4, Detection of Compound-Induced Formation of Ternary Complex Between BCL-XL and CRBN-DDB1 by AlphaLISA Method
Na2HPO4(Sigma), NaH2PO4(Sigma), sodium chloride (Sigma), Tween-20 (Sigma), AlphaLISA®Nikel Chelate Acceptor beads (PerkinElmer), Strep-Tactin® Alpha Donor beads (PerkinElmer), Assay plate (Corning), Strep-BCl-XL (HitGen), His-CRBN/DDB1 (HitGen).
DMSO was used to dissolve the dry powder of the test compound to obtain a 10.00 mM solution. The instrument ECHO was used to perform gradient dilution of the compound, which was then added to a 384-well reaction plate (Corning, Cat #3824), so that the final concentration of DMSO in the entire reaction system (10.0 μL) was less than 1%, and the same amount of DMSO was added and used as a control.
Strep-BCl-XL and His-CRBN/DDB1 proteins were dissolved in buffer (10 mM NaH2PO4, 40 mM Na2HPO4, 150 mM sodium chloride, 0.03% Tween20, pH=7.4) to obtain a protein mixture of 60 nM Strep-BCL-XL and 60 nM His-CRBN/DDB1, the protein mixture (5ul/well) was added to the 384-well plate in which the compound had been added, and incubated at room temperature for 30 minutes, then 5 μl of a detection mixture with 50 μg/ml AlphaLISA®Nikel Chelate Acceptor beads and 50 μg/ml Strep-Tactin® Alpha Donor beads was added, and incubated at room temperature for 2 hours; and then a microplate reader was used to detect AlphaLISA signal.
Fifth order polynomial or Sixth order polynomial in Polynomial of Graphpad 6.0 was used for data fitting.

| SMILES | IC50 (MOLT-4 cells) | AlphaLISA signal (PROTAC ternary complex signal intensity) [1] |
| --- | --- | --- |
| C=Cc1cc(-c2nc3c(c(NC)n2)CCN(C(=O)c2ccc(/C=C/c4ccc(C#CCN5CCN(CCCCCOc6cccc7c6C(=O)N(C6CCC(=O)NC6=O)C7=O)CC5)cc4)cc2)C3)cnc1C=C (centres unmarked) [Compound C3-6] | 50 to 100 µM | + |
| C=Cc1cc(-c2nc3c(c(NC)n2)CCN(C(=O)c2ccc(COc4ccc(C#CCN5CCN(CCCCCCOc6cccc7c6C(=O)N(C6CCC(=O)NC6=O)C7=O)CC5)cc4)cc2)C3)cnc1C=C (centres unmarked) [Compound C3-17] | 50 to 100 µM | ++++ |
| C=Cc1cc(-c2nc3c(c(NC)n2)CCN(C(=O)c2ccc(COc4ccc(C#CCN5CCN(CCCCCOc6cccc7c6C(=O)N(C6CCC(=O)NC6=O)C7=O)CC5)cc4)cc2)C3)cnc1C=C (centres unmarked) [Compound C3-16] | 50 to 100 µM | ++++ |
| CNc1nc(-c2cnc3ccccc3c2)nc2c1CCN(C(=O)c1ccc(COc3ccc(C#CCN4CCN(C(=O)CCCn5cc(COCCOCCNc6cccc7c6C(=O)N(C6CCC(=O)NC6=O)C7=O)nn5)CC4)cc3)cc1)C2 (centres unmarked) [A] | 50 to 100 µM | ++ |
| C=Cc1cc(-c2ncc3c(n2)CN(C(=O)c2ccc(/C=C/c4ccc(C#CCN5CCN(CCCCCCOc6cccc7c6C(=O)N(C6CCC(=O)NC6=O)C7=O)CC5)cc4)cc2)CC3)cnc1C=C (centres unmarked) [Compound C3-3] | – | + |
| C/C=c1/cc(-c2nc3c(c(NC)n2)CCN(C(=O)c2ccc(COc4ccc(C#CCN(C)CCCCCOc5cccc6c5C(=O)N(C5CCC(=O)NC5=O)C6=O)cc4)cc2)C3)cn/c1=C/C (centres unmarked) [Compound B3] | – | + |
| CNc1nc(-c2cnc3ccccc3c2)nc2c1CCN(C(=O)c1ccc(/C=C/c3ccc(C#CCN4CCN(CCCCC(=O)N[C@H](C(=O)N5C[C@H](O)C[C@H]5C(=O)NCc5ccc(-c6scnc6C)cc5)C(C)(C)C)CC4)cc3)cc1)C2 [Compound G1-4] | – | + |
| C=Cc1cc(-c2nc3c(c(NC)n2)CCN(C(=O)c2ccc(COc4ccc(C#CCN(C)CCCCOc5cccc6c5C(=O)N(C5CCC(=O)NC5=O)C6=O)cc4)cc2)C3)cnc1C=C (centres unmarked) [Compound B2] | – | + |
| C=Cc1cc(-c2nc3c(c(NC)n2)CCN(C(=O)c2ccc(COc4ccc(C#CCN5CCN(CCCOc6cccc7c6C(=O)N(C6CCC(=O)NC6=O)C7=O)CC5)cc4)cc2)C3)cnc1C=C (centres unmarked) [Compound C3-14] | – | + |
| CNc1nc(-c2cnc3ccccc3c2)nc2c1CCN(C(=O)c1ccc(/C=C/c3ccc(C#CCN4CCN(C(=O)CCC(=O)N[C@H](C(=O)N5C[C@H](O)C[C@H]5C(=O)N[C@@H](C)c5ccc(-c6scnc6C)cc5)C(C)(C)C)CC4)cc3)cc1)C2 [Compound G2-2] | – | + |
| C/C=c1/cc(-c2ncc3c(n2)CN(C(=O)c2ccc(/C=C/c4ccc(C#CCN5CCN(CCCCCOc6cccc7c6CN(C6CCC(=O)NC6=O)C7=O)CC5)cc4)cc2)CC3)cn/c1=C/C (centres unmarked) [Compound C3-4] | 100 to 200 µM | + |
| C=Cc1cc(-c2nc3c(c(NC)n2)CCN(C(=O)c2ccc(COc4ccc(C#CCN5CCN(CCCCNc6cccc7c6C(=O)N(C6CCC(=O)NC6=O)C7=O)CC5)cc4)cc2)C3)cnc1C=C (centres unmarked) [Compound C2-2] | 50 to 100 µM | ++++ |
| C=Cc1cc(-c2ncc3c(n2)CN(C(=O)c2ccc(/C=C/c4ccc(C#CCN5CCN(CCCCCOc6cccc7c6C(=O)N(C6CCC(=O)NC6=O)C7=O)CC5)cc4)cc2)CC3)cnc1C=C (centres unmarked) [Compound C3-2] | 100 to 200 µM | + |
| C=Cc1cc(-c2ncc3c(n2)CN(C(=O)c2ccc(COc4ccc(C#CCN5CCN(CCCCCOc6cccc7c6C(=O)N(C6CCC(=O)NC6=O)C7=O)CC5)nc4)cc2)CC3)cnc1C=C (centres unmarked) [Compound C3-13] | – | + |
| O=C1CCC(N2Cc3c(C#CCCCN4CCN(CC#Cc5ccc(/C=C/c6ccc(C(=O)N7CCc8cnc(-c9cnc%10ccccc%10c9)nc8C7)cc6)cc5)CC4)cccc3C2=O)C(=O)N1 (centres unmarked) [Compound D2-4] | 100 to 200 µM | + |
| CNc1nc(-c2cnc3ccccc3c2)nc2c1CCN(C(=O)c1ccc(/C=C/c3ccc(C#CCN4CCN(CCCCCC(=O)N[C@H](C(=O)N5C[C@H](O)C[C@H]5C(=O)NCc5ccc(-c6scnc6C)cc5)C(C)(C)C)CC4)cc3)cc1)C2 [Compound G1-5] | > 200 µM | ++ |
| C=Cc1cc(-c2nc3c(c(NC)n2)CCN(C(=O)c2ccc(COc4ccc(C#CCN5CCN(CCCCCCNc6cccc7c6C(=O)N(C6CCC(=O)NC6=O)C7=O)CC5)cc4)cc2)C3)cnc1C=C (centres unmarked) [Compound C2-4] | – | ++++ |
| CNc1nc(-c2cnc3ccccc3c2)nc2c1CCN(C(=O)c1ccc(/C=C/c3ccc(C#CCN4CCN(C(=O)CCCCCCC(=O)N[C@H](C(=O)N5C[C@H](O)C[C@H]5C(=O)NCc5ccc(-c6scnc6C)cc5)C(C)(C)C)CC4)cc3)cc1)C2 [Compound G2-6] | – | + |
| C/C=c1/cc(-c2nc3c(c(NC)n2)CCN(C(=O)c2ccc(/C=C/c4ccc(C#CCN5CCN(CCCCCOc6cccc7c6CN(C6CCC(=O)NC6=O)C7=O)CC5)cc4)cc2)C3)cn/c1=C/C (centres unmarked) [Compound C3-5] | 100 to 200 µM | ++ |
| C=Cc1cc(-c2ncc3c(n2)CN(C(=O)c2ccc(/C=C/c4ccc(C#CCN5CCN(C6CCN(CC#Cc7cccc8c7CN(C7CCC(=O)NC7=O)C8=O)CC6)CC5)cc4)cc2)CC3)cnc1C=C (centres unmarked) [Compound E1-2] | 50 to 100 µM | ++ |
| C=Cc1cc(-c2nc3c(c(NC)n2)CCN(C(=O)c2ccc(COc4ccc(C#CCN5CCN(CCCCOc6cccc7c6C(=O)N(C6CCC(=O)NC6=O)C7=O)CC5)cc4)cc2)C3)cnc1C=C (centres unmarked) [Compound C3-15] | – | + |
| C=Cc1cc(-c2nc3c(c(NC)n2)CCN(C(=O)c2ccc(COc4ccc(C#CCN5CCN(CCCCCCCCNc6cccc7c6C(=O)N(C6CCC(=O)NC6=O)C7=O)CC5)cc4)cc2)C3)cnc1C=C (centres unmarked) [Compound C2-5] | – | +++ |
| CNc1nc(-c2cnc3ccccc3c2)nc2c1CCN(C(=O)c1ccc(/C=C/c3ccc(C#CCN4CCN(C(=O)CCCCCC(=O)N[C@H](C(=O)N5C[C@H](O)C[C@H]5C(=O)NCc5ccc(-c6scnc6C)cc5)C(C)(C)C)CC4)cc3)cc1)C2 [Compound G2-5] | – | + |
| CNc1nc(-c2cnc3ccccc3c2)nc2c1CCN(C(=O)c1ccc(/C=C/c3ccc(C#CCN4CCN(C(=O)CCCCCCCCC(=O)N[C@H](C(=O)N5C[C@H](O)C[C@H]5C(=O)N[C@@H](C)c5ccc(-c6scnc6C)cc5)C(C)(C)C)CC4)cc3)cc1)C2 [Compound G2-7] | – | + |
